Experimental data published in paper PMC8458281, “Computational modeling and experimental validation of the EPI-X4/CXCR4 complex allows rational design of small peptide antagonists” (Communications Biology, 2021).

Legend:
Type in all cases: binding, human
CXCR4 L41A = assay: 12G5 antibody competition, 293T cells transfected with CXCR4 L41A; conditions: IC50 on CXCR4 L41A relative to wt
Method: (§1) Fig. 4 The interactions of EPI-X4 and the EPI-X4 derivatives WSC02 and JM#21 with point-mutated CXCR4 were assessed by an antibody competition assay. Amino acid substitutions were introduced in the sequence of CXCR4 by site-directed mutagenesis, cloned into an IRES-eGFP expression vector, and transfected into 293 T cells. Afterward, cells were incubated with serially diluted EPI-X4 (a, b), WSC02 (c, d), or JM#21 (e, f) in presence of a constant concentration of CXCR4 specific antibody (clone 12G5). After 2 h, bound antibody was analyzed by flow cytometry. a, c, e) Representative dose-dependent replacement of 12G5 antibody by peptides. b, d, f) IC50 values were calculated by nonlinear regression. Shown are data derived from at least three individual experiments ± SEM. IC50 values were set to 1000 µM (EPI-X4 and WSC02) or 100 µM (JM#21) if the value exceeds the maximally used concentration. *p ≤ 0.05, ***p ≤ 0.001 (one-way ANOVA for comparison with wt). For IC50 values see Table 1. For all binding curves see also Fig. S8.
(§2) Mutated CXCR4 constructs were transfected into 293 T cells that have a very low endogenous expression level of wild-type CXCR4. Transfected cells were then analyzed for CXCR4 surface expression (Fig. S5a) and EPI-X4 binding using a flow cytometry-based antibody competition assay (Fig. S5b, c)[33]. […]

CXCR4 D97S = assay: 12G5 antibody competition, 293T cells transfected with CXCR4 D97S; conditions: IC50 on CXCR4 D97S relative to wt
Method: as §1, §2

CXCR4 E277A = assay: 12G5 antibody competition, 293T cells transfected with CXCR4 E277A; conditions: IC50 on CXCR4 E277A relative to wt
Method: as §1, §2

CXCR4 E288D = assay: 12G5 antibody competition, 293T cells transfected with CXCR4 E288D; conditions: IC50 on CXCR4 E288D relative to wt
Source text: The human CXCR4 gene (isoform 1 or b, NCBI Reference Sequence: NP_003458.1, UniProtKB/Swiss-Prot: P61073-1) was amplified by PCR of the pTrip_GFP_CXCR4 vector (kindly provided by Prof. Françoise Bachelerie, Paris, France) by generating the flanking single cutter sites NheI and HindIII. The PCR fragment was ligated in the empty pcDNA3.1(+) vector (Life Technologies GmbH, Darmstadt). Afterward, the IRES-eGFP cassette of the proviral clone pBR_NL4-3_IRES-eGFP[44] was PCR-amplified with EcoRI and NotI single cutter sites and ligated in the multiple cloning site after CXCR4. […]
To test for peptide interaction with CXCR4, 50,000 SupT1 cells were seeded in 96-well microtiter plates in PBS supplemented with 1% FCS, the buffer was removed and cells were precooled at 4 °C. […] Afterward, the unbound antibody was removed and cells analyzed by flow cytometry. The mean fluorescence intensity (MFI) was normalized to the PBS control. […] IC50 values were determined by nonlinear regression using GraphPad Prism. […] For analysis, after flow cytometry, eGFP expressing cells were gated and further analyzed. CXCR4 expression levels and antibody binding to CXCR4 was determined using the CXCR4 antibody clones 12G5 (binds to the second ECL loop) (#555976, BD PharmingenTM) and 1D9 (binds to the N-terminus) (#551510, BD PharmingenTM) (Supplement Figure S5). […]

“IVRWSKKVPCVS [WSC02, first-generation C-terminally truncated 12-mer derivative of EPI-X4 with four substitutions]” showed a Fold change (CXCR4 L41A) of 1.5, a Fold change (CXCR4 D97S) of 18 and a Fold change (CXCR4 E277A) of 0.7. The Fold change (CXCR4 E288D) was 74.
